According to patent US12247031B2, “Cyclobutyl pyrazolopyrimidine PDE9 inhibitors” (Merck Sharp & Dohme LLC, priority 2018, dated 2025):

Target: Human PDE9 (PDE9A2) (Homo sapiens (Human), UniProt O76083)
Experiment: PDE9 IMAP fluorescence polarization assay
Format: biochemical
Settings: human PDE9A2, FAM-cGMP substrate 50 nM, IMAP FP, apparent inhibition constant
Description: The activity of the compounds in accordance with the present invention as PDE9 inhibitors may be readily determined without undue experimentation using a fluorescence polarization (FP) methodology that is well known in the art (Huang, W., et al., J. Biomol Screen. 2002, 7: 215).
In a typical experiment the PDE9 inhibitory activity of the compounds of the present invention was determined in accordance with the following experimental method.
Human PDE9 (PDE9A2, GenBank Accession No. NM_001001567), full length with N-terminal GST tag, was purchased from BPS Bioscience. The fluorescence polarization assay for cyclic nucleotide phosphodiesterases was performed using an IMAP® FP kit supplied by Molecular Devices, Sunnyvale, CA (product #R8139). IMAP® technology has been applied previously to phosphodiesterase assays (Huang, W., et al., J. Biomol Screen. 2002, 7: 215).
Fluorescence polarization (mP) was calculated from the parallel (S) and perpendicular (P) fluorescence of each sample well and the analogous values for the median control well, containing only substrate (So and Po), using the following equation: Polarization (mP)=1000*(S/So−P/Po)/(S/So+P/Po).
Dose-inhibition profiles for each compound were characterized by fitting the mP data to a four-parameter equation given below. The apparent inhibition constant (KI), the maximum inhibition at the low plateau relative to “100% Inhibition Control” (Imax; e.g. 1=>same as this control), the minimum inhibition at the high plateau relative to the “0% Inhibition Control” (Imin, e.g. 0=>same as the no drug control) and the Hill slope (nH) are determined by a non-linear least squares fitting of the mP values as a function of dose of the compound using an in-house software based on the procedures described by Mosser et al., JALA. 2003, 8: 54-63, using the following equation: […]

Compound | Ki
CC(C1CCOCC1)n1nc(C#N)c2c(=O)[nH]c(C3CCC3n3cc(C#N)cn3)nc21 (single isomer, unassigned) [Example 48, 6-(2-(4-cyano-1H-pyrazol-1-yl)cyclobutyl)-4-oxo-1-(1-(tetrahydro-2H-pyran-4-yl)ethyl)-4,5-dihydro-1H-pyrazolo[3,4-d]pyrimidine-3-carbonitrile] | 366 nM
C[C@@H](c1ccc(C(F)(F)F)nc1)n1nc(C#N)c2c(=O)[nH]c(C3CCC3n3ccc(C(F)(F)F)n3)nc21 (stereo partly drawn) [Example 32, 4-oxo-6-(2-(3-(trifluoromethyl)-1H-pyrazol-1-yl)cyclobutyl)-1-((S)-1-(6-(trifluoromethyl)pyridin-3-yl)ethyl)-4,5-dihydro-1H-pyrazolo[3,4-d]pyrimidine-3-carbonitrile] | 608 nM
Cc1nnc(C2CCC2c2nc3c(c(C#N)nn3C(C)c3ccc(C(F)(F)F)nc3)c(=O)[nH]2)o1 (single isomer, unassigned) [Example 3, 6-(2-(5-methyl-1,3,4-oxadiazol-2-yl)cyclobutyl)-4-oxo-1-(1-(6-(trifluoromethyl)pyridin-3-yl)ethyl)-4,5-dihydro-1H-pyrazolo[3,4-d]pyrimidine-3-carbonitrile] | 221 nM
CC(c1ccc(C(F)(F)F)nc1)n1nc(C#N)c2c(=O)[nH]c(C3CCC3n3ccc(C#N)n3)nc21 (single isomer, unassigned) [Example 29, 6-(2-(3-cyano-1H-pyrazol-1-yl)cyclobutyl)-4-oxo-1-(1-(6-(trifluoromethyl)pyridin-3-yl)ethyl)-4,5-dihydro-1H-pyrazolo[3,4-d]pyrimidine-3-carbonitrile] | 0.256 nM
C[C@@H](c1ccc(C(F)(F)F)nc1)n1nc(C#N)c2c(=O)[nH]c(C3CCC3c3cncnc3)nc21 (stereo partly drawn) [Example 22, 4-oxo-6-(2-(pyrimidin-5-yl)cyclobutyl)-1-((S)-1-(6-(trifluoromethyl)pyridin-3-yl)ethyl)-4,5-dihydro-1H-pyrazolo[3,4-d]pyrimidine-3-carbonitrile] | 608 nM
C[C@@H](c1ccc(C(F)(F)F)nc1)n1nc(C#N)c2c(=O)[nH]c(C3CCC3n3cccn3)nc21 (single isomer, unassigned) [Example 36] | 148 nM
CC(c1ccc(C(F)(F)F)nc1)n1nc(C#N)c2c(=O)[nH]c(C3CCC3n3cc(C(F)F)cn3)nc21 (centres unmarked) [Example 45, 6-(2-(4-(difluoromethyl)-1H-pyrazol-1-yl)cyclobutyl)-4-oxo-1-(1-(6-(trifluoromethyl)pyridin-3-yl)ethyl)-4,5-dihydro-1H-pyrazolo[3,4-d]pyrimidine-3-carbonitrile] | 115 nM
C[C@@H](c1ccc(C(F)(F)F)nc1)n1nc(C#N)c2c(=O)[nH]c(C3CCC3n3cc(C4CC4)cn3)nc21 (single isomer, unassigned) [Example 39] | 1.75 nM
CC(c1ccc(C(F)(F)F)nc1)n1nc(C#N)c2c(=O)[nH]c(C3CCC3n3ccc(C#N)n3)nc21 (single isomer, unassigned) [Example 26, 6-(2-(3-cyano-1H-pyrazol-1-yl)cyclobutyl)-4-oxo-1-(1-(6-(trifluoromethyl)pyridin-3-yl)ethyl)-4,5-dihydro-1H-pyrazolo[3,4-d]pyrimidine-3-carbonitrile] | 96.1 nM
C[C@@H](c1ccc(C(F)(F)F)nc1)n1nc(C#N)c2c(=O)[nH]c(C3CCC3c3ccccn3)nc21 (single isomer, unassigned) [Example 9] | 2.72 nM
CC(c1ccc(C(F)(F)F)nc1)n1nc(C#N)c2c(=O)[nH]c(C3CCC3n3ccc(C#N)n3)nc21 (single isomer, unassigned) [Example 27, 6-(2-(3-cyano-1H-pyrazol-1-yl)cyclobutyl)-4-oxo-1-(1-(6-(trifluoromethyl)pyridin-3-yl)ethyl)-4,5-dihydro-1H-pyrazolo[3,4-d]pyrimidine-3-carbonitrile] | 1.51 nM
C[C@@H](c1ccc(C(F)(F)F)nc1)n1nc(C#N)c2c(=O)[nH]c(C3CCC3c3cncnc3)nc21 (single isomer, unassigned) [Example 20] | 0.602 nM
C[C@@H](c1ccc(C(F)(F)F)nc1)n1nc(C#N)c2c(=O)[nH]c(C3CCC3n3cc(C4CC4)cn3)nc21 (single isomer, unassigned) [Example 38] | 11 nM
Cc1nnc(C2CCC2c2nc3c(c(C#N)nn3C(C)c3ccc(C(F)(F)F)nc3)c(=O)[nH]2)o1 (single isomer, unassigned) [Example 2, 6-(2-(5-methyl-1,3,4-oxadiazol-2-yl)cyclobutyl)-4-oxo-1-(1-(6-(trifluoromethyl)pyridin-3-yl)ethyl)-4,5-dihydro-1H-pyrazolo[3,4-d]pyrimidine-3-carbonitrile] | 118 nM
C[C@@H](c1ccc(C(F)(F)F)nc1)n1nc(C#N)c2c(=O)[nH]c(C3CCC3c3ncccc3F)nc21 (single isomer, unassigned) [Example 16] | 0.461 nM
C[C@@H](c1ccc(C(F)(F)F)nc1)n1nc(C#N)c2c(=O)[nH]c(C3CCC3n3cc(C(F)(F)F)cn3)nc21 (stereo partly drawn) [Example 43, 4-oxo-6-(2-(4-(trifluoromethyl)-1H-pyrazol-1-yl)cyclobutyl)-1-((S)-1-(6-(trifluoromethyl)pyridin-3-yl)ethyl)-4,5-dihydro-1H-pyrazolo[3,4-d]pyrimidine-3-carbonitrile] | 4.75 nM
C[C@@H](c1ccc(C(F)(F)F)nc1)n1nc(C#N)c2c(=O)[nH]c(C3CCC3c3ccnn3C)nc21 (single isomer, unassigned) [Example 19] | 0.145 nM
C[C@@H](c1ccc(C(F)(F)F)nc1)n1nc(C#N)c2c(=O)[nH]c(C3CCC3c3cncnc3)nc21 (single isomer, unassigned) [Example 21] | 176 nM
CC(C1CCOCC1)n1nc(C#N)c2c(=O)[nH]c(C3CCC3n3cccn3)nc21 (centres unmarked) [Example 40, 6-(2-(1H-pyrazol-1-yl)cyclobutyl)-4-oxo-1-(1-(tetrahydro-2H-pyran-4-yl)ethyl)-4,5-dihydro-1H-pyrazolo[3,4-d]pyrimidine-3-carbonitrile] | 225 nM
CC(c1ccc(C(F)(F)F)nc1)n1nc(C#N)c2c(=O)[nH]c(C3CCC3n3cc(C#N)cn3)nc21 (single isomer, unassigned) [Example 25, 6-(2-(4-cyano-1H-pyrazol-1-yl)cyclobutyl)-4-oxo-1-(1-(6-(trifluoromethyl)pyridin-3-yl)ethyl)-4,5-dihydro-1H-pyrazolo[3,4-d]pyrimidine-3-carbonitrile] | 0.35 nM
C[C@@H](c1ccc(C(F)(F)F)nc1)n1nc(C#N)c2c(=O)[nH]c(C3CCC3c3ccccn3)nc21 (single isomer, unassigned) [Example 8] | 0.034 nM
C[C@@H](c1ccc(C(F)(F)F)nc1)n1nc(C#N)c2c(=O)[nH]c(C3CCC3n3cc(F)cn3)nc21 (single isomer, unassigned) [Example 34] | 5.9 nM
C[C@@H](c1ccc(C(F)(F)F)nc1)n1nc(C#N)c2c(=O)[nH]c(C3CCC3c3cncnc3)nc21 (stereo partly drawn) [Example 23, 4-oxo-6-(2-(pyrimidin-5-yl)cyclobutyl)-1-((S)-1-(6-(trifluoromethyl)pyridin-3-yl)ethyl)-4,5-dihydro-1H-pyrazolo[3,4-d]pyrimidine-3-carbonitrile] | 608 nM
Cc1nnc(C2CCC2c2nc3c(c(C#N)nn3C(C)c3ccc(C(F)(F)F)nc3)c(=O)[nH]2)o1 (single isomer, unassigned) [Example 1, 6-(2-(5-methyl-1,3,4-oxadiazol-2-yl)cyclobutyl)-4-oxo-1-(1-(6-(trifluoromethyl)pyridin-3-yl)ethyl)-4,5-dihydro-1H-pyrazolo[3,4-d]pyrimidine-3-carbonitrile] | 28.9 nM
Cc1nnc(C2CCC2c2nc3c(c(C#N)nn3C(C)c3ccc(C(F)(F)F)nc3)c(=O)[nH]2)o1 (single isomer, unassigned) [Example 4, 6-(2-(5-methyl-1,3,4-oxadiazol-2-yl)cyclobutyl)-4-oxo-1-(1-(6-(trifluoromethyl)pyridin-3-yl)ethyl)-4,5-dihydro-1H-pyrazolo[3,4-d]pyrimidine-3-carbonitrile] | 229 nM
CC(C1CCOCC1)n1nc(C#N)c2c(=O)[nH]c(C3CCC3n3cc(C#N)cn3)nc21 (centres unmarked) [Example 41, 6-(2-(4-cyano-1H-pyrazol-1-yl)cyclobutyl)-4-oxo-1-(1-(tetrahydro-2H-pyran-4-yl)ethyl)-4,5-dihydro-1H-pyrazolo[3,4-d]pyrimidine-3-carbonitrile] | 608 nM
C[C@@H](c1ccc(C(F)(F)F)nc1)n1nc(C#N)c2c(=O)[nH]c(C3CCC3c3ccn(C)n3)nc21 (single isomer, unassigned) [Example 18] | 35.9 nM
C[C@@H](c1ccc(C(F)(F)F)nc1)n1nc(C#N)c2c(=O)[nH]c(C3CCC3c3ccc(F)cn3)nc21 (single isomer, unassigned) [Example 14] | 0.12 nM
CC(c1ccc(C(F)(F)F)nc1)n1nc(C#N)c2c(=O)[nH]c(C3CCC3n3ccc(C#N)n3)nc21 (single isomer, unassigned) [Example 28, 6-(2-(3-cyano-1H-pyrazol-1-yl)cyclobutyl)-4-oxo-1-(1-(6-(trifluoromethyl)pyridin-3-yl)ethyl)-4,5-dihydro-1H-pyrazolo[3,4-d]pyrimidine-3-carbonitrile] | 31 nM
